16 molecules from patent US10221178B2, “Purine inhibitors of human phosphatidylinositol 3-kinase delta” (MERCK SHARP & DOHME CORP., priority 2015, dated 2019) can be followed below.

Some results are limits rather than exact numbers.

In one test the target is PI3Kdelta (Homo sapiens (Human), UniProt O00329). As to the kind of experiment: HTRF PI3K biochemical assay, delta isoform. Conditions: 0.3 nM enzyme, 100 uM ATP, 5 uM PIP2, form screened: Neutral. From the text: (§1) HTRF PI3K Biochemical Assay to Measure Intrinsic Potency of Compound Inhibitors
Chain of PI3Kdelta (O00329 whole entry, canonical isoform): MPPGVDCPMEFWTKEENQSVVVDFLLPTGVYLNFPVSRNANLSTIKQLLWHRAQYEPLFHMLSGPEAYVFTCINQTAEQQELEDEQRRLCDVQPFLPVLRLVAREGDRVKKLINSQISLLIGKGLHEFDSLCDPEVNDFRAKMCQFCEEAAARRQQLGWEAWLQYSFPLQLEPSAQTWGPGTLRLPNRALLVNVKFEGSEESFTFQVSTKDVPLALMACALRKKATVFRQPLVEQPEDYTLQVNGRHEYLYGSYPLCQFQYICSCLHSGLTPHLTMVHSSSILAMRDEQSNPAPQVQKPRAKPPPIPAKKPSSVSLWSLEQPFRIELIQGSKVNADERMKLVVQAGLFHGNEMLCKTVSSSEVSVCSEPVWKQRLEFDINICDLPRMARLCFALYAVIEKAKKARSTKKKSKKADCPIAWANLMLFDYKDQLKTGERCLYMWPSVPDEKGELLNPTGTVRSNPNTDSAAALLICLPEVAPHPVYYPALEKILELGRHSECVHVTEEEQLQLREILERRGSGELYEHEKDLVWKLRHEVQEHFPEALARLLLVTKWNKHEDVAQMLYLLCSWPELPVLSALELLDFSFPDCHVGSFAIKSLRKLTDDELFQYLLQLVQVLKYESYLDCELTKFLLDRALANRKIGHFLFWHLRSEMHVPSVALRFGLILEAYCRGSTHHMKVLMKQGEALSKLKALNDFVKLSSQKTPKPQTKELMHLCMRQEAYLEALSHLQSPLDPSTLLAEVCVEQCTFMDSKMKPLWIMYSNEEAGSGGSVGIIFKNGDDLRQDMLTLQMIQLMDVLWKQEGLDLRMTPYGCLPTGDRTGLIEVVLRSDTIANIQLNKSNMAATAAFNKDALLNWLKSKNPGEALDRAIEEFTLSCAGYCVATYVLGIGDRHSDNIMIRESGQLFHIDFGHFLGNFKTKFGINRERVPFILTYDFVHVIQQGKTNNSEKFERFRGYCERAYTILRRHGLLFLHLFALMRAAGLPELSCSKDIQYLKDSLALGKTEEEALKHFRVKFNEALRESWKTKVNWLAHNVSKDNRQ
Chain of PI3Kdelta (P27986 whole entry partner, canonical isoform): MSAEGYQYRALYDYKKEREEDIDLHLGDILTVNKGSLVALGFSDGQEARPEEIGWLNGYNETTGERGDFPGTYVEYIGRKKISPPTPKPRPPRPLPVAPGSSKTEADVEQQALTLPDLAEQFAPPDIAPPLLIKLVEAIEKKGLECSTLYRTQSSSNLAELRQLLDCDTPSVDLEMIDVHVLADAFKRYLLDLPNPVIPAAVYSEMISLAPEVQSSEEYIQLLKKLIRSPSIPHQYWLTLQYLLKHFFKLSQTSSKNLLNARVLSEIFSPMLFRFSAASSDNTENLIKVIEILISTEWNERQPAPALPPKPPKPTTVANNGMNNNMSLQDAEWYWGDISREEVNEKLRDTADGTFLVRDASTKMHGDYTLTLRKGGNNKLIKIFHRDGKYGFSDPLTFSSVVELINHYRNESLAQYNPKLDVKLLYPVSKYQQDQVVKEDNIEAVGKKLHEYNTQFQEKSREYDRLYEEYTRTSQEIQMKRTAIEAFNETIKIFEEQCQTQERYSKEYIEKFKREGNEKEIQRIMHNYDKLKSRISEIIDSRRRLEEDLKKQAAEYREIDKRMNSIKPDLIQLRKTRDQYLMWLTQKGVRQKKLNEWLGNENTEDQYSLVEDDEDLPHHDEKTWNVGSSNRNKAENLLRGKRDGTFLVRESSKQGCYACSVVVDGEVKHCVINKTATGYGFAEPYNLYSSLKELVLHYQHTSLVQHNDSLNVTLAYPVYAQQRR
(§2) The PI3-Kinase biochemical assays were developed to measure the intrinsic potency and compound dependent inhibition of the alpha, beta, delta, and gamma PI3K isoform enzymes.
(§3) This assay was developed and further optimized from a kit produced by Upstate (Millipore catalog #33-047) and has been configured for HTS (high throughput screening) and SAR screening. Briefly, this procedure exploits the exquisite specificity and high affinity binding of enzyme reaction substrate phosphatidyl(3,4,5)triphosphate (PIP3) to the GRP1 pleckstrin homology (PH) domain to generate the signal. In the absence of PIP3, an HTRF (Homogeneous Time-Resolved Fluorescence energy transfer) complex is formed consisting of europium (Eu)-labeled anti-GST, GSTtagged GRP1-PH domain, biotin-PIP3 and streptavidin conjugated APC. The native PIP3 produced by PI3-Kinase activity disrupts in a competitive manner the biotin-PIP3 from the PH domain, resulting in the loss of energy transfer (HTRF complex) and a decrease in the signal. The format of this assay is the same for all 4 isoforms of PI3K; the differences lie in the concentration of enzyme used to achieve robust assay window. The alpha, beta, and delta assays are run at 0.5, 1, and 0.3 nM enzymes and the gamma assay is run at 5 nM enzyme. The ATP concentration is 100 uM in the alpha, beta, and delta assays and 50 uM ATP in the gamma assay. All reactions are run at 5 uM PIP2.
(§4) Compounds are serially diluted (3-fold in 100% DMSO) across a 384-well polypropylene source plated from column 3 to column 12 and column 13 to column 22, to yield 10 concentration dose response for each test compound. Columns 1, 2, 23 and 24 contain either only DMSO or pharmacological known control inhibitor. Once titrations are made, 2.5 nL of the compounds on 384 well plates are reformatted and transferred by acoustic dispense in quadruplicates to a 1536 assay plate (Greiner) to assay across all four PI3K isoform enzymes.
(§5) The PI3-Kinase biochemical assay was optimized using the HTRF kit provided by Upstate (Millipore). The assay kit contains six reagents: 1) 4× Reaction Buffer; 2) native PIP2 (substrate); 3) Stop (EDTA); 4) Detection Mix A (Streptavidin-APC); 5) Detection Mix B (Eu-labeled Anti-GST plus GST-tagged PH-domain); 6) Detection Mix C. In addition, the following items were obtained or purchased; PI3Kinase (alpha 14-602, beta 14-603, gamma 14-558 and delta 14-604 from Upstate; Millipore), dithiothreitol (Sigma, D-5545), Adenosine-5′ triphosphate (InVitrogen, Cat#AS001A), native PIP3 (PI(3,4,5)P3, diC8, H^+, CELLSIGNALS, INC. Cat #907) DMSO (Sigma, 472301).
(§6) PI3Kinase Reaction Buffer is prepared by dilution the stock 1:4 with de-ionized water. DTT, PIP2 and Biotin-PIP3 were added to 1536 assay plate at a final concentration of 5 mM, […] on the day of use. Enzyme addition and compound pre-incubation are initiated by the addition of 1.25 ul of PI3K (at twice its final concentration) in the 1× reaction buffer to all wells using a BioRaptor. Plates are incubated at RT for 15 minutes. Reactions are initiated by addition of 1.25 ul of 2× substrate solution (PIP2 and ATP in 1× reaction buffer) using BioRaptor. Plates are incubated in humidified chamber at RT for one hour. Reactions are quenched by addition of 0.625 uL of stop solution to all wells using the BioRaptor. The quenched reactions are then processed to detect product formation by adding 0.625 uL of Detection Solution to all wells using the BioRaptor (Detection mix C, Detection Mix A, and Detection Mix B combined together in an 18:1:1 ratio prepared 2 hours prior to use). Following a one hour incubation in the dark, the HTRF signal is measured on the Envision plate reader set for 330 nm excitation and dual emission detection at 620 nM (Eu) and 665 nM (APC).

A further test concerns the target PI3Kalpha (Homo sapiens (Human), UniProt P42336). As to the kind of experiment: HTRF PI3K biochemical assay, alpha isoform (selectivity versus PI3Kalpha). Conditions: relative ratio (PI3K-alpha IC50 value/PI3K-delta IC50 value); form screened: Neutral.
Excerpt: as §1, §2, §3, §4, §5
as §6, with “[…]. […]” for “(APC).”

Chain of PI3Kalpha (P42336 whole entry, canonical isoform): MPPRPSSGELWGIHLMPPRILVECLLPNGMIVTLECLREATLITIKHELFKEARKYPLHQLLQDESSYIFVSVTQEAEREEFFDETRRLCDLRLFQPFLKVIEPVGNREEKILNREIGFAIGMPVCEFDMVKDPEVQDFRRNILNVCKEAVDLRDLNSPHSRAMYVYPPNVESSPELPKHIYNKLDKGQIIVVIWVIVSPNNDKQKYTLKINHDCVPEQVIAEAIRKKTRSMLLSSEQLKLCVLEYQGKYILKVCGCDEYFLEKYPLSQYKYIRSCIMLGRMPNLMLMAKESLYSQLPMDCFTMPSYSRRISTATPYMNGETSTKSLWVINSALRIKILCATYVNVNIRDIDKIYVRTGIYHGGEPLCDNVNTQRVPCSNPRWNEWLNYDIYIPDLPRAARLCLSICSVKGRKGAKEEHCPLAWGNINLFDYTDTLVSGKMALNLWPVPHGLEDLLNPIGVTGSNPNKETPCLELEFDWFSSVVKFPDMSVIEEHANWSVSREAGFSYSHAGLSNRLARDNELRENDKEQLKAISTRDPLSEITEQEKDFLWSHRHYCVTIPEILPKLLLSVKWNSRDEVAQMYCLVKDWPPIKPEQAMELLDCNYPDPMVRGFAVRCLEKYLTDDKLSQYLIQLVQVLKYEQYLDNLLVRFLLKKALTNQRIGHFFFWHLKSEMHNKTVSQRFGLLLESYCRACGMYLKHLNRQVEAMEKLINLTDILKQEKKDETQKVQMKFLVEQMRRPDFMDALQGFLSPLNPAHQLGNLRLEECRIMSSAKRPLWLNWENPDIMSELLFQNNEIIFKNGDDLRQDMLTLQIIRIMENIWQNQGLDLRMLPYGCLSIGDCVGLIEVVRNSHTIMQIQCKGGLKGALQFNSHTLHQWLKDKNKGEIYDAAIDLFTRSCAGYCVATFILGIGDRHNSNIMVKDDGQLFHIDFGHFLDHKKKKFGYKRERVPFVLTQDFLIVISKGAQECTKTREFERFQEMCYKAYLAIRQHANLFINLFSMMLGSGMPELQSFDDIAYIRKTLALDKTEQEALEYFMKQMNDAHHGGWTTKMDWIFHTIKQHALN
Chain of PI3Kalpha (P27986 whole entry partner, canonical isoform): as the sequence (P27986 whole entry partner, canonical isoform) above

`CC[C@H](Nc1ncnc2c1nc(-c1cnc(C)nc1)n2CC)C(=O)N1C[C@@H]2C[C@H]1CO2` [Compound 2-31, 9-ethyl-8-(2-methylpyrimidin-5-yl)-N-{(1S)-1-[(1S,4S)-2-oxa-5-azabicyclo[2.2.1]hept-5-ylcarbonyl]propyl}-9H-purin-6-amine]: half-maximal inhibition at PI3Kdelta (IC50) was put at 37 nM. Besides, the “Selectivity versus PI3Kalpha” value on PI3Kalpha is reported as greater than 10.
The like results for `CC[C@H](Nc1ncnc2c1nc(-c1cnc(C)nc1)n2CC)C(=O)N1CC(=O)N(C)C(C)C1` (single isomer, unassigned) [Compound 4-5, (S or R)-4-[(2S)-2-{[9-ethyl-8-(2-methylpyrimidin-5-yl)-9H-purin-6-yl]amino}butanoyl]-1,6-dimethylpiperazin-2-one] were, in that order, 6.1 nM and greater than 10.
The corresponding values for `CC[C@H](Nc1ncnc2c1nc(-c1cnc(C)nc1)n2CC)C(=O)N1CCS(=O)(=O)CC1` [Compound 2-8, N-{(1S)-1-[(1,1-dioxidothiomorpholin-4-yl)carbonyl]propyl}-9-ethyl-8-(2-methylpyrimidin-5-yl)-9H-purin-6-amine] are 31 nM and greater than 10.
The corresponding values for `CCn1c(-c2cnc(C)nc2)nc2c(N[C@H](CC(=O)N3C[C@@H](C)O[C@@H](C)C3)c3ccccc3)ncnc21` [Compound 2-56, N-{(1R)-3-[(cis)-2,6-dimethylmorpholin-4-yl]-3-oxo-1-phenylpropyl}-9-ethyl-8-(2-methylpyrimidin-5-yl)-9H-purin-6-amine] are 610 nM and greater than 10.
Take `CC[C@H](Nc1ncnc2c1nc(-c1cnc(C)nc1)n2CC)C(=O)N1CCOCC1CO` (mixture of isomers) [Compound 2-37, {4-[(2S)-2-{[9-ethyl-8-(2-methylpyrimidin-5-yl)-9H-purin-6-yl]amino}butanoyl]-(R and S)-morpholin-3-yl}methanol]: the IC50 – broadly, the concentration that gives 50% inhibition – on PI3Kdelta is 64 nM. The “Selectivity versus PI3Kalpha” value on PI3Kalpha is on record as greater than 10.
The corresponding values for `CC[C@H](Nc1ncnc2c1nc(-c1cnc(C)nc1)n2CC)C(=O)N1CC[C@@H](F)C1` [Compound 2-16, 9-ethyl-N-[(1S)-1-{[(3R)-3-fluoropyrrolidin-1-yl]carbonyl}propyl]-8-(2-methylpyrimidin-5-yl)-9H-purin-6-amine] are 112 nM and greater than 10.
The corresponding values for `CCC(Nc1ncnc2c1nc(-c1cnc(C)nc1)n2CC)C(=O)N1CC(O)(C2CC2)C1` (single isomer, unassigned) [Compound 4-1, (S or R)-3-cyclopropyl-1-(2-{[9-ethyl-8-(2-methylpyrimidin-5-yl)-9H-purin-6-yl]amino}butanoyl)azetidin-3-ol] are 30 nM and greater than 10.
The like results for `CCn1ncc(-c2nc3c(N[C@H](Cc4ccccc4)C(=O)N4CCOCC4)ncnc3n2C)c1C` [Compound 2-1, N-[(1R)-1-benzyl-2-morpholin-4-yl-2-oxoethyl]-8-(1-ethyl-5-methyl-1H-pyrazol-4-yl)-9-methyl-9H-purin-6-amine] were, in that order, 15 nM and greater than 10.
On PI3Kdelta, `CC[C@H](Nc1ncnc2c1nc(-c1cnc(C)nc1)n2CC)C(=O)N1CCCC(C)C1` (mixture of isomers) [Compound 2-23, 9-ethyl-N-{(1S)-1-[((R and S)-3-methylpiperidin-1-yl)carbonyl]propyl}-8-(2-methylpyrimidin-5-yl)-9H-purin-6-amine] displayed an IC50 of 9.3 nM. Also, the “Selectivity versus PI3Kalpha” value at PI3Kalpha is reported as greater than 10.
In turn, `CC[C@H](Nc1ncnc2c1nc(-c1cnc(C)nc1)n2CC)C(=O)N1CCOC[C@@H]1C` [Compound 2-26, 9-ethyl-N-[(1S)-1-{[(3S)-3-methylmorpholin-4-yl]carbonyl}propyl]-8-(2-methylpyrimidin-5-yl)-9H-purin-6-amine] came in with an IC50 against PI3Kdelta of 32 nM. Besides, the “Selectivity versus PI3Kalpha” value on PI3Kalpha is greater than 10.
The like results for `CCn1c(-c2cnc(C)nc2)nc2c(NC[C@@H](C)C(=O)N3CCCC3)ncnc21` [Compound 2-60, 9-ethyl-N-[(2R)-2-methyl-3-oxo-3-pyrrolidin-1-ylpropyl]-8-(2-methylpyrimidin-5-yl)-9H-purin-6-amine] were, in that order, 29 nM and greater than 10.
For the molecule `CCn1c(-c2cnc(C)nc2)nc2c(N[C@H](CC(=O)N3C[C@@H](C)O[C@@H](C)C3)C(C)C)ncnc21` [Compound 2-58, N-[(1R)-3-[(cis)-2,6-dimethylmorpholin-4-yl]-1-(1-methylethyl)-3-oxopropyl]-9-ethyl-8-(2-methylpyrimidin-5-yl)-9H-purin-6-amine], the IC50 against PI3Kdelta amounted to 290 nM. In addition, at PI3Kalpha, the “Selectivity versus PI3Kalpha” value is listed as greater than 10.
The corresponding values for `CC[C@H](Nc1ncnc2c1nc(-c1ccc(C(F)(F)F)nc1)n2CC)C(=O)N1C[C@@H](C)O[C@@H](C)C1` [Compound 2-7, N-[(1S)-1-{[(cis)-2,6-dimethylmorpholin-4-yl]carbonyl}propyl]-9-ethyl-8-[6-(trifluoromethyl)pyridin-3-yl]-9H-purin-6-amine] are 2.8 nM and greater than 10.
The corresponding values for `CC[C@H](Nc1ncnc2c1nc(-c1cnc(C)nc1)n2CC)C(=O)N1CC(=O)NC(C)(C)C1` [Compound 4-7, 4-[(2S)-2-{[9-ethyl-8-(2-methylpyrimidin-5-yl)-9H-purin-6-yl]amino}butanoyl]-6,6-dimethylpiperazin-2-one] are 19 nM and greater than 10.
The corresponding values for `CCn1c(-c2cnc(C)nc2)nc2c(N[C@@H](CN(C)C)C(=O)N3C[C@@H](C)O[C@@H](C)C3)ncnc21` [Compound 2-51, (2S)-3-[(cis)-2,6-dimethylmorpholin-4-yl]-N-2-[9-ethyl-8-(2-methylpyrimidin-5-yl)-9H-purin-6-yl]-N-1-,N-1-dimethyl-3-oxopropane-1,2-diamine] are 420 nM and greater than 10.
`CC[C@H](Nc1ncnc2c1nc(-c1cnc(C)nc1)n2CC)C(=O)N1CC(C(F)F)C1` [Compound 2-11, N-[(1S)-1-{[3-(difluoromethyl)azetidin-1-yl]carbonyl}propyl]-9-ethyl-8-(2-methylpyrimidin-5-yl)-9H-purin-6-amine] gave an IC50 against PI3Kdelta of 60 nM. The “Selectivity versus PI3Kalpha” value on PI3Kalpha is given as greater than 10.
